{"source": "paper PMC6271858", "about": "“Identification of Natural Compound Carnosol as a Novel TRPA1 Receptor Agonist” (Molecules, 2014)", "key": {"[1]": {"system": "HEK293 host cells", "assay": "Compound specificity assay, calcium influx in HEK293 host cells", "assay_type": "cell-based, human", "details": "compared with 0.25% DMSO group; positive control 5 μM ATP", "procedure": "To observe whether the identified compounds induce calcium influx in HEK293 host cells, the cells were treated with various concentrations of tested compounds. Meanwhile, 5 μM ATP and 0.25% DMSO were used as the positive and negative control, respectively. The regulatory activity of tested samples was defined as follows: (3) Activity%=RFUcompound/RFUpositive×100"}, "[2]": {"molecular_target": "human TRPA1 (Homo sapiens, UniProt O75762)", "sequence (O75762 whole entry)": "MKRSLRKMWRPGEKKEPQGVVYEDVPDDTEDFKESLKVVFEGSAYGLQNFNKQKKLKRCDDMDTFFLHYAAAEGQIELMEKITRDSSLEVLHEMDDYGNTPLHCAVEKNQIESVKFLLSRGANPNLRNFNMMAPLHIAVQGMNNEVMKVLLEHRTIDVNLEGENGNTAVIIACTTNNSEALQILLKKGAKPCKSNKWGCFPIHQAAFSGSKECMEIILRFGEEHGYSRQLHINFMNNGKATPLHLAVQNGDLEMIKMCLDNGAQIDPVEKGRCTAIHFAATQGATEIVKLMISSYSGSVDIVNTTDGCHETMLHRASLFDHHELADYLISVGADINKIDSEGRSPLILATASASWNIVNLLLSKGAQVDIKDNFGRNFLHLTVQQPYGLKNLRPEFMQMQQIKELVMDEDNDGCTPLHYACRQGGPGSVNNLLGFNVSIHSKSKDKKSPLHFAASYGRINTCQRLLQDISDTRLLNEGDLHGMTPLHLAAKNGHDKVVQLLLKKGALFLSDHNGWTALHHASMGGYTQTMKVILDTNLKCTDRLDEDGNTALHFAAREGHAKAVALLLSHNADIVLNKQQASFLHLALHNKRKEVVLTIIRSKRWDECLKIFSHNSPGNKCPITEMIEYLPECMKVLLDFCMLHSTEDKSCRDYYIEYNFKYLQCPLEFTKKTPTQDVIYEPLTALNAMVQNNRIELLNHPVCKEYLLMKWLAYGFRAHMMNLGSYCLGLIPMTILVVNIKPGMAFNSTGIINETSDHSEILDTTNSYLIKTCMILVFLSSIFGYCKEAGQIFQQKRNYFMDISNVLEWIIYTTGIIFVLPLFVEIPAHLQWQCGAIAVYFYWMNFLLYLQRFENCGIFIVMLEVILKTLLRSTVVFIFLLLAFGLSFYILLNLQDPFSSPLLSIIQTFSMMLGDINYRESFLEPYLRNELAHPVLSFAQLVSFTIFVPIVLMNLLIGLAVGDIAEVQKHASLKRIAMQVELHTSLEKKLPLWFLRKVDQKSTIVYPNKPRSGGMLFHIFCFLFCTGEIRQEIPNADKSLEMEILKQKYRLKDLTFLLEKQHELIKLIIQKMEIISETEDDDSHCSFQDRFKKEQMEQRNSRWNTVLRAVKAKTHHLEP", "assay": "Calcium mobilization agonist assay in HEK293/TRPA1 cells", "assay_type": "cell-based", "details": "for EC80 value: agonist concentration used to evoke the antagonist assay", "procedure": "HEK293/TRPA1 cells were seeded at a density of 3.5 × 10^4 per well into 96-well clear-bottom black plates coated with matrigel and incubated in 5% CO2 at 37 °C overnight. On the day of assay, the growth medium was replaced by 100 µL loading buffer containing a final concentration of 4 μM Ca^2+-sensitive dye Fluo-4 AM and 2 mM acid red 1 in HBSS. The plate was then incubated at 37 °C in dark for 30 min before calcium signal read out. For antagonists study, 80 µL loading buffer was added into each well and 20 µL HBSS containing tested compound was added 10 min prior to calcium-flux measurement.\nCells were transferred to a Flexstation II (Molecular Devices) for experimentation. Basal fluorescence was recorded for 16 s before agonist application. The integrated Flexstation II fluidics system added 25 µL compound (5× solution) from the agonist compound plate to the assay plate containing 100 µL loading buffer solution. Relative fluorescence units (RFU) were read by FlexStation II at 37 °C with an excitation wavelength of 485 nm and an emission wavelength of 525 nm. The fluorescence intensity was read every 1.52 s for 80 s.\nNinety µM CA and 0.25% DMSO were used as the positive and negative control respectively during primary screening of TRPA1 agonist. Hits above the cutoff value (50%) were picked for retesting, percentage of increased calcium signal was calculated as following equation: (2) Activity%=RFUcompound−RFUnegative/RFUpositive−RFUnegative×100"}, "[3]": {"molecular_target": "TRPM8 (Homo sapiens, UniProt Q7Z2W7)", "sequence (Q7Z2W7 whole entry)": "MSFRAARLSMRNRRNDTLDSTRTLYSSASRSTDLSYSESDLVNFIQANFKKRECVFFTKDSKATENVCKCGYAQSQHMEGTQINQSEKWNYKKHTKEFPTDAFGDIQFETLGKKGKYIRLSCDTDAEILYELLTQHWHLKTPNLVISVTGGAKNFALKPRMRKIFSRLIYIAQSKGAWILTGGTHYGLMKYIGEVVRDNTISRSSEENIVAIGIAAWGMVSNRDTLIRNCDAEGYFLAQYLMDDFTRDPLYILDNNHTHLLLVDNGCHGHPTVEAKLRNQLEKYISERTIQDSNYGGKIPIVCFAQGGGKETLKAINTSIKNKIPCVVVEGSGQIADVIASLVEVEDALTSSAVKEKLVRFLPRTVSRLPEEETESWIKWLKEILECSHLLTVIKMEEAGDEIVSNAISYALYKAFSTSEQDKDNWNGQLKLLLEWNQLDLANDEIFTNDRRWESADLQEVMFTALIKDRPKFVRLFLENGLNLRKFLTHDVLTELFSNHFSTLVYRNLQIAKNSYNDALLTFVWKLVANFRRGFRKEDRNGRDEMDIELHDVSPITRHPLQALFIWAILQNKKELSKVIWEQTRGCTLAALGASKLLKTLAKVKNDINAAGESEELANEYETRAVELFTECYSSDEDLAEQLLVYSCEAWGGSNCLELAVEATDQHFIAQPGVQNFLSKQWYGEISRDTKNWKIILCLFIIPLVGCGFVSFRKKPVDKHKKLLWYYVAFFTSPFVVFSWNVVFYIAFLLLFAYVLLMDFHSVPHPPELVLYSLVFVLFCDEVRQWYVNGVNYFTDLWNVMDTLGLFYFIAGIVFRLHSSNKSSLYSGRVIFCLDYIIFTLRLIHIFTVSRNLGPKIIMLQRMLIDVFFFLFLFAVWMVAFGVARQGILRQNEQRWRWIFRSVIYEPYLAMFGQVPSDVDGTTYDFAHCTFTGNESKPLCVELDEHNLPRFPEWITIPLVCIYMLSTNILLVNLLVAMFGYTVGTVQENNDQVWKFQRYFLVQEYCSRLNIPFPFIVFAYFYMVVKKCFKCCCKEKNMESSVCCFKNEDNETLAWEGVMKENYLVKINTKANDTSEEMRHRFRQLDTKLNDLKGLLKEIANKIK", "assay": "Compound selectivity calcium mobilization assay in HEK293/TRPM8 cells", "assay_type": "cell-based", "procedure": "HEK 293 cell lines stably expressing human TRPA1, TRPM8 and TRPV3 channels, respectively, were established by HD Bioscience Co. Ltd (SH, China) according to the cell line generation procedure in published articles of our laboratory. All HEK293 cell lines used in this study were routinely maintained in DMEM containing 10% FBS, 100 U/mL penicillin, and 100 μg/mL streptomycin in a humidified atmosphere of 5% CO2 at 37 °C. HEK293/TRPA1, HEK293/TRPM8 and HEK293/TRPV3 cells were incubated with complete culture medium along with 50 μg/mL hygromycin B.\n(§1) To study the specificity of the action target of identified compounds, the activating effect on TRPM8 and TRPV3 was tested. HEK293 cell lines stably expressing TRPM8 and TRPV3 receptors were separately stimulated by a serious concentrations of identified compounds using calcium mobilization assay as described above."}, "[4]": {"system": "HEK293/TRPA1 cells", "assay": "Compound cytotoxicity assay (CellTiter-Glo, luciferase coupled ATP quantitation)", "assay_type": "cell-based, human", "details": "2 h incubation, compared to the control group", "procedure": "HEK293/TRPA1 cells were seeded at 3.5 × 10^4 per well into 96-well clear-bottom black plates and incubated in 5% CO2 at 37 °C overnight. Different concentrations of the compound were added into the 96-well plates and incubated in 5% CO2 at 37 °C for 2 h. Luminescence was read by Envision 2100 multilabel reader to detect cells’ viability following incubation with CellTiter-Glo reagent for 10 min."}, "[5]": {"molecular_target": "T1, TRPV3 (Homo sapiens, UniProt Q8NET8)", "T1 sequence (Q8NET8 1-790)": "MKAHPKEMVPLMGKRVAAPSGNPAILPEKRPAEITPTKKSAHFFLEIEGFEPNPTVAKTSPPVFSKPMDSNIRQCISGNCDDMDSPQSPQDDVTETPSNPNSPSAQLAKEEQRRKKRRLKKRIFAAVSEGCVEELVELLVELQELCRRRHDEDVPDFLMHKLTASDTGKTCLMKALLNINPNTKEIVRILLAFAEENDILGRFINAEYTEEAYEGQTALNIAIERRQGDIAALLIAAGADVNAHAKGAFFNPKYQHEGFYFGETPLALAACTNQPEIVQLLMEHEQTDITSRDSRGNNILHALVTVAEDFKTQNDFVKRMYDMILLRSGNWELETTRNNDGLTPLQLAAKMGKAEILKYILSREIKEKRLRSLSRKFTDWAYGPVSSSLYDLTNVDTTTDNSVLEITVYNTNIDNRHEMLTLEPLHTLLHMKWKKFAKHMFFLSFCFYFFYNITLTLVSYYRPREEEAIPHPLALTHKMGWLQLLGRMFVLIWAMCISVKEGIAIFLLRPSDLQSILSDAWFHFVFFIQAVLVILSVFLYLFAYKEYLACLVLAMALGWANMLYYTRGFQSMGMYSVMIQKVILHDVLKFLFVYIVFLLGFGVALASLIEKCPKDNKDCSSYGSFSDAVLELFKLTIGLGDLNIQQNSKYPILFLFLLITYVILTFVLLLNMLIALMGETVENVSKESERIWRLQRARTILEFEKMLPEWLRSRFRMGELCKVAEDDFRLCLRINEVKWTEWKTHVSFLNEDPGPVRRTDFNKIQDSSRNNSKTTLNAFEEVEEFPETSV", "assay": "Compound selectivity calcium mobilization assay in HEK293/TRPV3 cells", "assay_type": "cell-based", "details": "series of concentrations", "procedure": "All HEK293 cell lines used in this study were routinely maintained in DMEM containing 10% FBS, 100 U/mL penicillin, and 100 μg/mL streptomycin in a humidified atmosphere of 5% CO2 at 37 °C. HEK293/TRPA1, HEK293/TRPM8 and HEK293/TRPV3 cells were incubated with complete culture medium along with 50 μg/mL hygromycin B.\nas §1"}}, "note": "“Also recorded” adds a separate entry of the source. Like-named read-outs stand apart in the source and are kept apart here.", "data": [{"smiles": "CC(C)c1cc2c(c(O)c1O)[C@@]1(C(=O)O)CCCC(C)(C)[C@@H]1CC2", "note": "[carnosic acid, Carnosic acid]", "values": [{"measurement": "Calcium signal in HEK293 host cells", "setting": "[1]", "value": "acted on HEK293 host cells"}, {"measurement": "Calcium signal in HEK293/TRPA1 cell line", "setting": "[2]; at 90 µM", "value": "caused calcium signal"}]}, {"smiles": "C[C@H]1[C@H](C)CC[C@]2(C(=O)O)CC[C@]3(C)C(=CC[C@@H]4[C@@]5(C)CC[C@H](O)C(C)(C)[C@@H]5CC[C@]43C)[C@H]12", "note": "[ursolic acid, Ursolic acid]", "values": [{"measurement": "Calcium signal in HEK293/TRPA1 cell line", "setting": "[2]; up to 90 µM", "value": "no significant calcium signal"}]}, {"smiles": "CC(C)c1cc2c(c(O)c1O)[C@@]13CCCC(C)(C)[C@@H]1C[C@@H]2OC3=O", "note": "[carnosol, Carnosol]", "values": [{"measurement": "Stimulation signal in HEK/TRPM8 cell line", "setting": "[3]; series of concentrations, calcium mobilization", "value": "no stimulation signal"}, {"measurement": "Cytotoxicity on HEK293/TRPA1 cells", "setting": "[4]", "value": "no significant cytotoxicity"}, {"measurement": "Calcium signal in HEK293 host cells", "setting": "[1]", "value": "no significant difference"}, {"measurement": "Stimulation signal in HEK/TRPV3 cell line", "setting": "[5]", "value": "no stimulation signal"}, {"measurement": "Calcium signal in primary screening", "setting": "[2]; 10 μM, HEK293/TRPA1 cells, positive control 90 µM CA, negative control 0.25% DMSO", "value": "showed significant difference compared with the negative control; also recorded: comparable to the positive control"}, {"measurement": "EC80 value", "setting": "[2]; HEK293/TRPA1 cells", "value": 30, "unit": "µM"}, {"measurement": "EC50", "setting": "[2]; HEK293/TRPA1 cells, calcium mobilization, agonist concentration-response, read-out: EC50", "value": 12.5, "unit": "µM"}]}, {"smiles": "O=C/C=C/c1ccccc1", "note": "[CA, cinnamaldehyde, reference compound]", "values": [{"measurement": "EC50", "setting": "[2]", "value": 31.5, "unit": "µM"}, {"measurement": "EC80 value", "setting": "[2]; HEK293/TRPA1 cells", "value": 90, "unit": "µM"}]}, {"smiles": "O=C1NC(c2cccc([N+](=O)[O-])c2)=CCN1c1ccccc1O", "note": "[icilin, Icilin, reference compound]", "values": [{"measurement": "EC50", "setting": "[3]; HEK293/TRPM8 cells, calcium response (data not shown)", "value": 0.17, "unit": "µM"}]}]}
